Reference: patent US20180000085A1, “USE OF PICOLINAMIDE COMPOUNDS WITH FUNGICIDAL ACTIVITY” (DOW AGROSCIENCES LLC, priority 2014, published 2018)

Legend:
Type in all cases: in vivo
Zymoseptoria tritici = experiment: Leaf blotch of wheat (SEPTTR) disease control on wheat seedlings; settings: for SEPTTR 1DP disease control rating, HV activity / SEPTTR 3DC disease control rating, HV activity: HV application at 100 ppm
Puccinia triticina = experiment: Wheat brown rust (PUCCRT) disease control on wheat seedlings; settings: for PUCCRT 1DP disease control rating, HV activity / PUCCRT 3DC disease control rating, HV activity: HV application at 100 ppm
Phakopsora pachyrhizi = experiment: Asian soybean rust (PHAKPA) disease control; set-up: key: A: > 80; B: ≤ 80; C: Not Tested; D: No Activity Observed in the Reported Assay; settings: 25 ppm; for PHAKPA disease control, 1DP: 1 Day Protectant; for PHAKPA disease control, 3DC: 3 Day Curative
[1] = low volume application, 125.1 g/H, 1 day protectant
[2] = low volume application, 125.1 g/H, 3 day curative
[3] = 1 Day Protectant, wheat leaf blotch
[4] = 3 Day Curative, wheat leaf blotch
[5] = 1 Day Protectant, wheat brown rust
[6] = 3 Day Curative, wheat brown rust
[7] = low volume application, 125.1 g/H, 1 Day Protectant
[8] = low volume application, 125.1 g/H, 3 Day Curative
[9] = low volume application, 125.1 g/H, 1 Day Protectant, wheat leaf blotch
[10] = low volume application, 125.1 g/H, 3 Day Curative, wheat leaf blotch
[11] = low volume application, 125.1 g/H, 1 Day Protectant, wheat brown rust
[12] = low volume application, 125.1 g/H, 3 Day Curative, wheat brown rust

SMILES | PHAKPA disease control, 1DP (Phakopsora pachyrhizi) | PHAKPA disease control, 3DC (Phakopsora pachyrhizi) | SEPTTR 1DP, LV activity at 125.1 g/H (% Control rating) (Zymoseptoria tritici; [7]) | SEPTTR 3DC, LV activity at 125.1 g/H (% Control rating) (Zymoseptoria tritici; [8]) | PUCCRT 1DP, LV activity at 125.1 g/H (% Control rating) (Puccinia triticina; [7]) | PUCCRT 3DC, LV activity at 125.1 g/H (% Control rating) (Puccinia triticina; [8]) | LV activity at 125.1 g/H SEPTTR 1DP (disease control rating) (Zymoseptoria tritici; [9]) | LV activity at 125.1 g/H SEPTTR 3DC (disease control rating) (Zymoseptoria tritici; [10]) | LV activity at 125.1 g/H PUCCRT 1DP (disease control rating) (Puccinia triticina; [11]) | LV activity at 125.1 g/H PUCCRT 3DC (disease control rating) (Puccinia triticina; [12]) | also measured
COc1ccnc(C(=O)NC(C)C(=O)OC(C)(C)C(Oc2ccccc2)C(C)C)c1OCOC(C)=O (mixture of isomers) [Cmpd 904] | A (> 80) | B (≤ 80) | – | – | – | – | – | – | – | – | SEPTTR 1DP disease control rating, LV activity at 125.1 g/H (Zymoseptoria tritici; [1]): B (≤ 80); SEPTTR 3DC disease control rating, LV activity at 125.1 g/H (Zymoseptoria tritici; [2]): A (> 80); PUCCRT 1DP disease control rating, LV activity at 125.1 g/H (Puccinia triticina; [1]): A (> 80); PUCCRT 3DC disease control rating, LV activity at 125.1 g/H (Puccinia triticina; [2]): A (> 80)
COc1ccnc(C(=O)N[C@@H](C)C(=O)O[C@@H](C)[C@H](Oc2ccccc2)C(C)C)c1O [Cmpd 304] | D | B (≤ 80) | – | – | – | – | – | – | – | – | SEPTTR 1DP disease control rating, HV activity (Zymoseptoria tritici; [3]): A (> 80); SEPTTR 3DC disease control rating, HV activity (Zymoseptoria tritici; [4]): A (> 80); PUCCRT 1DP disease control rating, HV activity (Puccinia triticina; [5]): A (> 80); PUCCRT 3DC disease control rating, HV activity (Puccinia triticina; [6]): A (> 80)
C=CC(OCCC)C(Oc1ccccc1)C(C)OC(=O)C(C)NC(=O)c1nccc(OC)c1OCOC(C)=O (centres unmarked) [Cmpd 455] | A (> 80) | B (≤ 80) | – | – | – | – | – | – | – | – | SEPTTR 1DP disease control rating, HV activity (Zymoseptoria tritici; [3]): A (> 80); SEPTTR 3DC disease control rating, HV activity (Zymoseptoria tritici; [4]): A (> 80); SEPTTR 1DP disease control rating, LV activity (Zymoseptoria tritici; Low volume application at 125.1 g/H, 1 Day Protectant, wheat leaf blotch): A (> 80); SEPTTR 3DC disease control rating, LV activity (Zymoseptoria tritici; Low volume application at 125.1 g/H, 3 Day Curative, wheat leaf blotch): A (> 80); PUCCRT 1DP disease control rating, HV activity (Puccinia triticina; [5]): A (> 80); PUCCRT 3DC disease control rating, HV activity (Puccinia triticina; [6]): A (> 80); PUCCRT 1DP disease control rating, LV activity (Puccinia triticina; Low volume application at 125.1 g/H, 1 Day Protectant, wheat brown rust): A (> 80); PUCCRT 3DC disease control rating, LV activity (Puccinia triticina; Low volume application at 125.1 g/H, 3 Day Curative, wheat brown rust): A (> 80)
CCCOC[C@@H](Oc1ccccc1)[C@H](C)OC(=O)[C@H](C)NC(=O)c1nccc(OC)c1OC(C)=O [Cmpd 474] | B (≤ 80) | B (≤ 80) | B (≤ 80) | A (> 80) | A (> 80) | A (> 80) | – | – | – | – | –
CCC(CC)[C@@H](Oc1ccccc1)[C@H](C)OC(=O)CNC(=O)c1nccc(OC)c1OC(C)=O [Cmpd 480] | B (≤ 80) | B (≤ 80) | B (≤ 80) | B (≤ 80) | A (> 80) | A (> 80) | – | – | – | – | –
COCC[C@H](Cc1ccc(F)cc1)[C@@H](Oc1ccccc1)[C@H](C)OC(=O)[C@H](C)NC(=O)c1nccc(OC)c1OCOC(C)=O [Cmpd 498] | A (> 80) | B (≤ 80) | A (> 80) | A (> 80) | A (> 80) | A (> 80) | – | – | – | – | –
COc1ccnc(C(=O)N[C@@H](C)C(=O)O[C@@H](C)[C@@H](CC(C)C)Oc2cccc(F)c2)c1OC(C)=O [Cmpd 1113] | – | – | – | – | – | – | A (> 80) | A (> 80) | A (> 80) | A (> 80) | –
COc1ccnc(C(=O)N[C@@H](C)C(=O)O[C@@H](C)[C@@H](CC(C)C)Oc2cc(F)ccc2F)c1OC(C)=O [Cmpd 1114] | – | – | – | – | – | – | A (> 80) | A (> 80) | A (> 80) | A (> 80) | –
COc1ccnc(C(=O)N[C@@H](C)C(=O)O[C@@H](C)[C@@H](CC(C)C)Oc2ccc(C)cc2Cl)c1OC(C)=O [Cmpd 1115] | – | – | – | – | – | – | B (≤ 80) | B (≤ 80) | A (> 80) | A (> 80) | –
COc1cc(O[C@H](CC(C)C)[C@H](C)OC(=O)[C@H](C)NC(=O)c2nccc(OC)c2OC(C)=O)ccc1Cl [Cmpd 1116] | – | – | – | – | – | – | A (> 80) | A (> 80) | A (> 80) | A (> 80) | –
